This note sets out measurements from patent publication US9738648B2, “Pyridines, pyrimidines, and pyrazines, as BTK inhibitors and uses thereof” (Merck Patent GmbH, priority 2013, dated 2017).

A word on the IC50: it is the concentration that gives 50% inhibition.

A value given as a limit tells only on which side of the number the result lay.

The test addresses T1, full-length human BTK (Homo sapiens, UniProt Q06187).
T1 construct: 2.5× stocks of full-length human BTK (08-080) from CarnaBio USA, Inc; purchased CarnaBio USA, Inc., Natick, Mass; 08-080
The test is described as follows: BTK IC50 Enzyme Assay (Assay A), microfluidic off-chip mobility shift kinase assay. In kind it is biochemical. Conditions: kinKDR peptide substrate, 90 min at 27° C. The protocol:
BTK IC50 Enzyme Assay (Assay A)
The following describes a microfluidic, off-chip mobility shift kinase assay used to measure inherent potency of compounds against BTK enzyme.
2.5× stocks of full-length human BTK (08-080) from CarnaBio USA, Inc., Natick, Mass., 1.6×ATP and appropriate kinKDR peptide substrate (FITC-AHA-EEPLYWSFPAKKK10 NH2) were prepared in kinase reaction buffer consisting of 25 mM MgCl2, 0.015% Brij-35 (30%), 100 mM Hepes, pH 7.5, and 10 mM DTT.
5 uL of enzyme buffer and 7.5 uL of ATP/kinKDR peptide substrate mix were added to Matrix (#115304) 384-well, sterile, polypropylene plates (Thermo Fisher Scientific, 15 Hudson, N.H.) with 125 nL of serially diluted compounds prepared in 100% DMSO, and incubated for 90 min. at 27° C. Following the incubation period, reactions were stopped by adding 60 uL stop buffer consisting of 100 mM Hepes, pH 7.5, 0.015% Brij-35 (30%), 0.277% Coating Reagent #3 (Caliper Life Sciences, Mountain View, Calif.), 5% DMSO. Stopped reactions were monitored at −2 PSI, −3000 V/−700 V in a LabChip 3000 plate 20 reader from Caliper Life Sciences, a PerkinElmer Company (Hopkinton, Mass.), and the activity was measured by off-chip mobility shift assay measuring the charge/mass difference between substrate and product resulting from peptide phosphorilation. IC50 and efficacy were determined by plotting log [Inhibitor] vs. % Activity in GeneData Screener (Basel, Switzerland).

T1 sequence (Q06187 whole entry): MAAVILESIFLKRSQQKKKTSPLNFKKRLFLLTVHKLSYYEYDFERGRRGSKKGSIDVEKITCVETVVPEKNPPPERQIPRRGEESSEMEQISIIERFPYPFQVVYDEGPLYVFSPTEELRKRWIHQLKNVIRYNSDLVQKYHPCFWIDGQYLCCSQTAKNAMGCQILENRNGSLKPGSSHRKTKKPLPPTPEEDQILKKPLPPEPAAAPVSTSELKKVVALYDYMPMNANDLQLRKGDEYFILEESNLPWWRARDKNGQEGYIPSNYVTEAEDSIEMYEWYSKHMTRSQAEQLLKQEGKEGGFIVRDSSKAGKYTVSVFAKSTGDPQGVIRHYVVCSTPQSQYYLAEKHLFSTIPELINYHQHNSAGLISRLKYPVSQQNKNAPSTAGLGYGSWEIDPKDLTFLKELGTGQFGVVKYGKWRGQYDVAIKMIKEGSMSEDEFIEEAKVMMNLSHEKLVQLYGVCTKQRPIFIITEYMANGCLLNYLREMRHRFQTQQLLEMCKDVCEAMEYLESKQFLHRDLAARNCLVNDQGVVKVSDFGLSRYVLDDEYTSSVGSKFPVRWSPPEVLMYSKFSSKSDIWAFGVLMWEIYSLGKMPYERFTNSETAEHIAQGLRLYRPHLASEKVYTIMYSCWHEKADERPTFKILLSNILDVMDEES

With `CN(C)C/C=C/C(=O)N1CCC(n2ccc3ncnc(Oc4ccc(Oc5ccccc5)cc4)c32)CC1` [Compound 1, (E)-4-(dimethylamino)-1-(4-(4-(4-phenoxyphenoxy)-5H-pyrrolo[3,2-d]pyrimidin-5-yl)piperidin-1-yl)but-2-en-1-one], the IC50 was under 100 nM.

Take `C=CC(=O)N1CCC(n2ccc3ncnc(Oc4ccc(Oc5ccccc5)cc4)c32)CC1` [Compound 2, 1-(4-(4-(4-phenoxyphenoxy)-5H-pyrrolo[3,2-d]pyrimidin-5-yl)piperidin-1-yl)prop-2-en-1-one]: the IC50 was under 100 nM.

As for `C=CC(=O)N1CC(n2ccc3ncc(-c4ccc(Oc5ccccc5)cc4)cc32)C1` [Compound 4, 1-(3-(6-(4-phenoxyphenyl)-1H-pyrrolo[3,2-b]pyridin-1-yl)azetidin-1-yl)prop-2-en-1-one], the IC50 was under 100 nM.

Turning to `C=CC(=O)N1CC[C@H](n2ccc3ncnc(Oc4ccc(Oc5ccccc5)cc4)c32)C1` [Compound 5, (S)-1-(3-(4-(4-phenoxyphenoxy)-5H-pyrrolo[3,2-d]pyrimidin-5-yl)pyrrolidin-1-yl)prop-2-en-1-one], the IC50 was under 100 nM.

For `C=CC(=O)N1CC(n2ccc3ncnc(Nc4ccc(Oc5ccccc5)cc4)c32)C1` [Compound 6, 1-(3-(4-((4-phenoxyphenyl)amino)-5H-pyrrolo[3,2-d]pyrimidin-5-yl)azetidin-1-yl)prop-2-en-1-one], the IC50 was under 100 nM.

Turning to `C=CC(=O)N1CC(n2ccc3ncc(-c4ccc(Oc5ccccc5)cc4)nc32)C1` [Compound 7, 1-(3-(3-(4-phenoxyphenyl)-5H-pyrrolo[2,3-b]pyrazin-5-yl)azetidin-1-yl)prop-2-en-1-one], the IC50 is under 100 nM.

In the case of `C=CC(=O)N[C@H]1C[C@H](n2ccc3ncnc(Oc4ccc(Oc5ccccc5)cc4)c32)C1` [Compound 8, N-(trans-3-(4-(4-phenoxyphenoxy)-5H-pyrrolo[3,2-d]pyrimidin-5-yl)cyclobutyl)acrylamide], the IC50 is under 100 nM.

For `C=CC(=O)N1CC[C@@H]1Cn1ccc2ncnc(Oc3ccc(Oc4ccccc4)cc3)c21` [Compound 9, (R)-1-(2-((4-(4-phenoxyphenoxy)-5H-pyrrolo[3,2-d]pyrimidin-5-yl)methyl)azetidin-1-yl)prop-2-en-1-one], the IC50 was under 100 nM.

Consider `C=CC(=O)N[C@H]1C[C@@H](n2ncc3ncnc(Oc4ccc(Oc5ccccc5)cc4)c32)C1` [Compound 11, N-((1s,3s)-3-(7-(4-phenoxyphenoxy)-1H-pyrazolo[4,3-d]pyrimidin-1-yl)cyclobutyl)acrylamide], for which the 50% inhibitory concentration (IC50) is under 100 nM.

As for `C=CC(=O)N1CCC(n2ncc3ncnc(Oc4ccc(Oc5ccccc5)cc4)c32)CC1` [Compound 12, 1-(4-(7-(4-phenoxyphenoxy)-1H-pyrazolo[4,3-d]pyrimidin-1-yl)piperidin-1-yl)prop-2-en-1-one], the IC50 was under 100 nM.

As for `CN(C)C/C=C/C(=O)N1CCC(n2ncc3ncnc(Oc4ccc(Oc5ccccc5)cc4)c32)CC1` [Compound 14, (E)-4-(dimethylamino)-1-(4-(7-(4-phenoxyphenoxy)-1H-pyrazolo[4,3-d]pyrimidin-1-yl)piperidin-1-yl)but-2-en-1-one], the IC50 was under 100 nM.

As to `C=CC(=O)N1CCCC(Cn2ccc3ncnc(Oc4ccc(Oc5ccccc5)cc4)c32)C1` (stereo not drawn) [Compound 15, 1-(3-((4-(4-phenoxyphenoxy)-5H-pyrrolo[3,2-d]pyrimidin-5-yl)methyl)piperidin-1-yl)prop-2-en-1-one], the 50% inhibitory concentration (IC50) is under 100 nM.

As for `C=CC(=O)N1CC(n2ccc3ncnc(Oc4ccc(OCc5ccccc5)cc4)c32)C1` [Compound 16, 1-(3-(4-(4-(benzyloxy)phenoxy)-5H-pyrrolo[3,2-d]pyrimidin-5-yl)azetidin-1-yl)prop-2-en-1-one], the 50% inhibitory concentration (IC50) is under 100 nM.

Turning to `C=CC(=O)N1CC(n2ccc3ncnc(Oc4ccc(Cc5ccccc5)cc4)c32)C1` [Compound 17, 1-(3-(4-(4-benzylphenoxy)-5H-pyrrolo[3,2-d]pyrimidin-5-yl)azetidin-1-yl)prop-2-en-1-one], the IC50 was under 100 nM.

Take `CN(C)C/C=C/C(=O)N1CC[C@H](n2ccc3ncnc(Oc4ccc(Oc5ccccc5)cc4)c32)C1` [Compound 18, (S,E)-4-(dimethylamino)-1-(3-(4-(4-phenoxyphenoxy)-5H-pyrrolo[3,2-d]pyrimidin-5-yl)pyrrolidin-1-yl)but-2-en-1-one]: the IC50 was under 100 nM.

As for `CN(C)C/C=C/C(=O)N1CC(n2ccc3ncnc(Oc4ccc(Oc5ccccc5)cc4)c32)C1` [Compound 19, (E)-4-(dimethylamino)-1-(3-(4-(4-phenoxyphenoxy)-5H-pyrrolo[3,2-d]pyrimidin-5-yl)azetidin-1-yl)but-2-en-1-one], the concentration for half-maximal inhibition (IC50) is under 100 nM.

Regarding `C=CC(=O)N1CC(Cn2ccc3ncnc(Oc4ccc(Oc5ccccc5)cc4)c32)C1` [Compound 20, 1-(3-((4-(4-phenoxyphenoxy)-5H-pyrrolo[3,2-d]pyrimidin-5-yl)methyl)azetidin-1-yl)prop-2-en-1-one], the 50% inhibitory concentration (IC50) was under 100 nM.

`C=CC(=O)N[C@H]1C[C@H](n2ncc3ncnc(Oc4ccc(Oc5ccccc5)cc4)c32)C1` [Compound 21, N-((1r,3r)-3-(7-(4-phenoxyphenoxy)-1H-pyrazolo[4,3-d]pyrimidin-1-yl)cyclobutyl)acrylamide]: the IC50 is under 100 nM.

`C=CC(=O)N1CC(n2ccc3ncnc(Oc4ccc(Nc5ccccc5)cc4)c32)C1` [Compound 22, 1-(3-(4-(4-(phenylamino)phenoxy)-5H-pyrrolo[3,2-d]pyrimidin-5-yl)azetidin-1-yl)prop-2-en-1-one]: the IC50 is under 100 nM.

Consider `C=CC(=O)N1CC(n2ncc3ncc(-c4ccc(Oc5ccccc5)cc4)nc32)C1` [Compound 23, 1-(3-(6-(4-phenoxyphenyl)-1H-pyrazolo[3,4-b]pyrazin-1-yl)azetidin-1-yl)prop-2-en-1-one], for which the concentration for half-maximal inhibition (IC50) is under 100 nM.

In the case of `CN(C)C/C=C/C(=O)N1CC(n2ccc3ncc(-c4ccc(Oc5ccccc5)cc4)nc32)C1` [Compound 24, (E)-4-(dimethylamino)-1-(3-(3-(4-phenoxyphenyl)-5H-pyrrolo[2,3-b]pyrazin-5-yl)azetidin-1-yl)but-2-en-1-one], the concentration for half-maximal inhibition (IC50) is under 100 nM.

For the molecule `C=CC(=O)N1CC[C@H]1Cn1ccc2ncnc(Oc3ccc(Oc4ccccc4)cc3)c21` [Compound 25, (S)-1-(2-((4-(4-phenoxyphenoxy)-5H-pyrrolo[3,2-d]pyrimidin-5-yl)methyl)azetidin-1-yl)prop-2-en-1-one], the 50% inhibitory concentration (IC50) is under 100 nM.

With `C=CC(=O)NCCCn1ccc2ncnc(Oc3ccc(Oc4ccccc4)cc3)c21` [Compound 26, N-(3-(4-(4-phenoxyphenoxy)-5H-pyrrolo[3,2-d]pyrimidin-5-yl)propyl)acrylamide], the IC50 was under 100 nM.

With `C=CC(=O)N1CC(n2ccc3ncnc(Oc4ccc(Oc5ccc(F)cc5)cc4)c32)C1` [Compound 27, 1-(3-(4-(4-(4-fluorophenoxy)phenoxy)-5H-pyrrolo[3,2-d]pyrimidin-5-yl)azetidin-1-yl)prop-2-en-1-one], the IC50 was under 100 nM.

For `C=CC(=O)N1CC2(CC(n3ccc4ncnc(Oc5ccc(Oc6ccccc6)cc5)c43)C2)C1` [Compound 28, 1-(6-(4-(4-phenoxyphenoxy)-5H-pyrrolo[3,2-d]pyrimidin-5-yl)-2-azaspiro[3.3]heptan-2-yl)prop-2-en-1-one], the half-maximal inhibitory concentration (IC50) is under 100 nM.

Take `C=CC(=O)N1CCC(Cn2ccc3ncnc(Oc4ccc(Oc5ccccc5)cc4)c32)C1` (stereo not drawn) [Compound 29, 1-(3-((4-(4-phenoxyphenoxy)-5H-pyrrolo[3,2-d]pyrimidin-5-yl)methyl)pyrrolidin-1-yl)prop-2-en-1-one]: the 50% inhibitory concentration (IC50) is under 100 nM.

In the case of `CN(C)C/C=C/C(=O)N1CCCC(Cn2ccc3ncnc(Oc4ccc(Oc5ccccc5)cc4)c32)C1` (stereo not drawn) [Compound 30, (E)-4-(dimethylamino)-1-(3-((4-(4-phenoxyphenoxy)-5H-pyrrolo[3,2-d]pyrimidin-5-yl)methyl)piperidin-1-yl)but-2-en-1-one], the concentration for half-maximal inhibition (IC50) is under 100 nM.

Consider `CC1=CC(C)=[N+]2C1=Cc1ccc(CCC(=O)NCCN3CCN(C/C=C/C(=O)N4CC(n5ccc6ncnc(Oc7ccc(Oc8ccccc8)cc7)c65)C4)CC3)n1[B-]2(F)F` [Compound 32, (E)-5,5-difluoro-1,3-dimethyl-7-(3-oxo-3-((2-(4-(4-oxo-4-(3-(4-(4-phenoxyphenoxy)-5H-pyrrolo[3,2-d]pyrimidin-5-yl)azetidin-1-yl)but-2-en-1-yl)piperazin-1-yl)ethyl)amino)propyl)-5H-dipyrrolo[1,2-c:2′,1′-f][1,3,2]diazaborinin-4-ium-5-uide], for which the half-maximal inhibitory concentration (IC50) was 100 to 1000 nM.

With `CN(C)C/C=C/C(=O)N[C@H]1C[C@H](n2ccc3ncnc(Oc4ccc(Oc5ccccc5)cc4)c32)C1` [Compound 33, (E)-4-(dimethylamino)-N-(trans-3-(4-(4-phenoxyphenoxy)-5H-pyrrolo[3,2-d]pyrimidin-5-yl)cyclobutyl)but-2-enamide], the IC50 was in the range of 100 to 1000 nM.

`C=CC(=O)N1CC[C@@H](n2ccc3ncnc(Oc4ccc(Oc5ccccc5)cc4)c32)C1` [Compound 34, (R)-1-(3-(4-(4-phenoxyphenoxy)-5H-pyrrolo[3,2-d]pyrimidin-5-yl)pyrrolidin-1-yl)prop-2-en-1-one]: the 50% inhibitory concentration (IC50) lay within 100 to 1000 nM.
